The values below come from patent publication US12030878B2 (BRISTOL-MYERS SQUIBB COMPANY, priority 2017, dated 2024).

Assay type in all cases: cell-based
The target in one assay is T1, human TLR9 (Homo sapiens, UniProt Q9NR96).
T1 construct: host or cells: HEK-Blue cells
T1 sequence (Q9NR96 26-1032): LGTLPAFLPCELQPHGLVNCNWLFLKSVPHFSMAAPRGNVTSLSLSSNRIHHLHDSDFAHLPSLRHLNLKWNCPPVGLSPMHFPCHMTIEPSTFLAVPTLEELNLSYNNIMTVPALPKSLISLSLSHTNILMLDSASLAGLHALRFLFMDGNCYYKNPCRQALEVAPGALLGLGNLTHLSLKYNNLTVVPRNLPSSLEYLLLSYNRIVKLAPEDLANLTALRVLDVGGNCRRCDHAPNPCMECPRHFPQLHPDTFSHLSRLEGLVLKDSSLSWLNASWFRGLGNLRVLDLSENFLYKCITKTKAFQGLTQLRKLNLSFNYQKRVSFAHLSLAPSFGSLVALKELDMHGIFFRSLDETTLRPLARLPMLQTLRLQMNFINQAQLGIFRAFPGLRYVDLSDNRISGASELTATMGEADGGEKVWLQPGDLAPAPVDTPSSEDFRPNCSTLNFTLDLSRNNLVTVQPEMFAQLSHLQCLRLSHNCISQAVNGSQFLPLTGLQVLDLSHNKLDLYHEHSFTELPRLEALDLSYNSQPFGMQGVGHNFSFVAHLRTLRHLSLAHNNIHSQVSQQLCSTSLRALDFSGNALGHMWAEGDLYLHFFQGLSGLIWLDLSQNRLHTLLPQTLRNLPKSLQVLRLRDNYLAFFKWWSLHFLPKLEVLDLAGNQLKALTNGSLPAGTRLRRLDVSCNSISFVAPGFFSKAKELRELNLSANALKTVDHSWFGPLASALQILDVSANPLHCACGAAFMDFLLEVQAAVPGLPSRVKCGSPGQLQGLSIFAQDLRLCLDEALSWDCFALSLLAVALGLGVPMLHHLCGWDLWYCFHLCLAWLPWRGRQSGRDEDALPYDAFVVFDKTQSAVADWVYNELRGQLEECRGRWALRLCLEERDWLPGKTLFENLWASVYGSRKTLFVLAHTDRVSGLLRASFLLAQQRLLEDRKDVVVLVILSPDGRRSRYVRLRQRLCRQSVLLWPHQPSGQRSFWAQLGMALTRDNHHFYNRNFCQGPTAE
The assay can be described thus: TLR9 inhibition reporter assay (HEK-Blue SEAP). The note with it: HEK-Blue cells overexpressing human TLR9, stimulated with ODN2006 5 nM, 22 hour incubation. How it is done:
(§1) TLR7/8/9 Inhibition Reporter Assays
(§2) HEK-Blue™-cells (Invivogen) overexpressing human TLR7, TLR8 or TLR9 receptors were used for screening inhibitors of these receptors using an inducible SEAP (secreted embryonic alkaline phosphatase) reporter gene under the control of the IFN-β minimal promoter fused to five NF-κB and AP-1-binding sites. Briefly, cells are seeded into Greiner 384 well plates (15000 cells per well for TLR7, 20.000 for TLR8 and 25,000 for TLR9) and then treated with test compounds in DMSO to yield a final dose response concentration range of 0.05 nM-50 μM. After a 30 minute compound pre-treatment at room temperature, the cells are then stimulated with a TLR7 ligand (gardiquimod at a final concentration of 7.5 μM), TLR8 ligand (R848 at a final concentration of 15.9 μM) or TLR9 ligand (ODN2006 at a final concentration of 5 nM) to activate NF-κB and AP-1 which induce the production of SEAP. After a 22 hour incubation at 37° C., 5% CO2, SEAP levels are determined with the addition of HEK-Blue™ Detection reagent (Invivogen), a cell culture medium that allows for detection of SEAP, according to manufacturer's specifications. The percent inhibition is determined as the % reduction in the HEK-Blue signal present in wells treated with agonist plus DMSO alone compared to wells treated with a known inhibitor.
On the technique in general: In a reporter assay the amount or activity of a reporter protein is the signal.

The next assay deals with T2, human TLR8 (Homo sapiens, UniProt Q9NR97).
T2 construct: host or cells: HEK-Blue cells
T2 sequence (Q9NR97 27-1041): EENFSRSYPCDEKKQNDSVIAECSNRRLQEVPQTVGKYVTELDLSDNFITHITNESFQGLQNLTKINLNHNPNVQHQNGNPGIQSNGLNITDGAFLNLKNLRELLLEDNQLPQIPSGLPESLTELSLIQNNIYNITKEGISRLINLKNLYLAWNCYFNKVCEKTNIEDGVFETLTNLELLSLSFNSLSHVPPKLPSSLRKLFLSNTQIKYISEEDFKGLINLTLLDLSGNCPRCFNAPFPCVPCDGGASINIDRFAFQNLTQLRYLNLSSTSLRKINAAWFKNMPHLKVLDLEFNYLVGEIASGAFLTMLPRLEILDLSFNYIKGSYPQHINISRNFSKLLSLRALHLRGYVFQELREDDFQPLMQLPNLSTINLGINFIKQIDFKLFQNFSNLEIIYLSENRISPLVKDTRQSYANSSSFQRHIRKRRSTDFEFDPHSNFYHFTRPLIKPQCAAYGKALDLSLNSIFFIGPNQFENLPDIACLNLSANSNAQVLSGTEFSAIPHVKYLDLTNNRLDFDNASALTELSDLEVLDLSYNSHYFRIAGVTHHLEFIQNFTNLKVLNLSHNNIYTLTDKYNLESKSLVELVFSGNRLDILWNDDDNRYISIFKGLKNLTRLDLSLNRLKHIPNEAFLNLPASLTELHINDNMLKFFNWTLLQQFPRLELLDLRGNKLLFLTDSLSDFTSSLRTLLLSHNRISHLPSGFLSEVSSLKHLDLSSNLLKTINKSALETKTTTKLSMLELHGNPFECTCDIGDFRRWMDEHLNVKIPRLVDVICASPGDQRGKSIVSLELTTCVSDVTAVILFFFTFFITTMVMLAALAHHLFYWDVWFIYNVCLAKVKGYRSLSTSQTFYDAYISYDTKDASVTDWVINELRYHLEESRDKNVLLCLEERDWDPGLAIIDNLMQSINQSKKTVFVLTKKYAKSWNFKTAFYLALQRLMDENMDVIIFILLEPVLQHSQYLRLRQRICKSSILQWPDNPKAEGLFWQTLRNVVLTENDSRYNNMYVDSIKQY
The assay can be described thus: TLR8 inhibition reporter assay (HEK-Blue SEAP). Particulars: HEK-Blue cells overexpressing human TLR8, stimulated with R848 15.9 μM, 22 hour incubation. How it is done: as §1, §2

The target of the next assay is T3, human TLR7 (Homo sapiens, UniProt Q9NYK1).
T3 construct: host or cells: HEK-Blue cells
T3 sequence (Q9NYK1 27-1049): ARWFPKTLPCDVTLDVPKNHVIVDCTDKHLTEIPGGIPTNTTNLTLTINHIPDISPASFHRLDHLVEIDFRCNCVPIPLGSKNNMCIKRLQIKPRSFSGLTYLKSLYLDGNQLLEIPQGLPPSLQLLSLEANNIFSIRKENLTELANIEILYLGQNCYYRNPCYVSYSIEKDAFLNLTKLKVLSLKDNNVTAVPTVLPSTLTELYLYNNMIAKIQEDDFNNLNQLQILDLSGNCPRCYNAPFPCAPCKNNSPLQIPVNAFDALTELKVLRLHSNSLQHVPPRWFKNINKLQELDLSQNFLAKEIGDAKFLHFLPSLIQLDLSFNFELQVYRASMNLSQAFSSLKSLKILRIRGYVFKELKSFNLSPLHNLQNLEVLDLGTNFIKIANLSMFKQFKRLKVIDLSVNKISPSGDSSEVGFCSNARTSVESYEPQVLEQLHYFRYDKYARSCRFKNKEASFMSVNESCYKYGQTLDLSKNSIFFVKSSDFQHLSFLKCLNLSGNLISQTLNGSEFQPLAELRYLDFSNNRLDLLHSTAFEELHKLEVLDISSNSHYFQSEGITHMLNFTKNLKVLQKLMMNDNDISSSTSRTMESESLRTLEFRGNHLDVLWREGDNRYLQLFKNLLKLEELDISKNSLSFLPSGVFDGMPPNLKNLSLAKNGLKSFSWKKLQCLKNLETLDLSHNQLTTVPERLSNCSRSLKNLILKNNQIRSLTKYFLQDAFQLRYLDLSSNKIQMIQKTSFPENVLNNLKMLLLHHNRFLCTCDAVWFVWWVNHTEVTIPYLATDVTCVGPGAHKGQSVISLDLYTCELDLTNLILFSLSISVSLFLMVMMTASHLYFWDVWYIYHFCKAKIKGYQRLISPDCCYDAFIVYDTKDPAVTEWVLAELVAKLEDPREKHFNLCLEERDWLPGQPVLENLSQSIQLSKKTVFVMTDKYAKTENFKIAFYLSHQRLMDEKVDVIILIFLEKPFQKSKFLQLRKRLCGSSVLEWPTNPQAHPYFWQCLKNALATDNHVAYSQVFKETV
The assay can be described thus: TLR7 inhibition reporter assay (HEK-Blue SEAP). The note with it: HEK-Blue cells overexpressing human TLR7, stimulated with gardiquimod 7.5 μM, 22 hour incubation. How it is done:
as §1, §2

What is called IC50 is the concentration that gives 50% inhibition. Higher therefore signals a need for much substance. Regarding `Cc1c(-c2[nH]c3ccc(OCC4CN(CC(C)(C)O)C4)cc3c2C(C)C)cn2cnnc2c1C` [Example 28, 1-(3-(((2-(7,8-dimethyl-[1,2,4]triazolo[4,3-a]pyridin-6-yl)-3-isopropyl-1H-indol-5-yl)oxy)methyl)azetidin-1-yl)-2-methylpropan-2-ol], the results for the half-maximal inhibitory concentration (IC50) at human TLR9, against human TLR8 and against human TLR7 were 1250 nM, 21.7 nM and 6.1 nM, respectively.

For `Cc1cc(-c2[nH]c3ccc(OC4CCN(C)CC4)cc3c2C(C)C)cc(C)n1` [Example 29, 2-(2,6-dimethylpyridin-4-yl)-3-isopropyl-5-((1-methylpiperidin-4-yl)oxy)-1H-indole], the IC50 on human TLR9 came out at 379 nM; against human TLR8, 0.7 nM; against human TLR7, 1.3 nM.

With `Cc1cc(-c2[nH]c3ccc(OCC4CCCN(C)C4)cc3c2C(C)C)cc(C)n1` (stereo not drawn) [Example 30, 2-(2,6-dimethylpyridin-4-yl)-3-isopropyl-5-((1-methylpiperidin-3-yl)methoxy)-1H-indole], the figures for the half-inhibitory concentration (IC50) at human TLR9, against human TLR8 and against human TLR7 were 304 nM, 2.6 nM and 2.3 nM, respectively.

In the case of `Cc1cc(-c2[nH]c3ccc(OC4CCN(C(C)C)CC4)cc3c2C(C)C)cc(C)n1` [Example 31, 2-(2,6-dimethylpyridin-4-yl)-3-isopropyl-5-((1-isopropylpiperidin-4-yl)oxy)-1H-indole], the IC50 was 530 nM at human TLR9, 1 nM on human TLR8 and 2.9 nM against human TLR7.

Consider `Cc1cc(-c2[nH]c3ccc(OC4CCN(C)CC4)cc3c2C(C)C)cn2ncnc12` [Example 32, 6-(3-isopropyl-5-((1-methylpiperidin-4-yl)oxy)-1H-indol-2-yl)-8-methyl-[1,2,4]triazolo[1,5-a]pyridine], for which the IC50 was determined as 1620 nM on human TLR9, 1 nM on human TLR8 and 0.9 nM against human TLR7.

With `Cc1cc(-c2[nH]c3ccc(OCC4CCN(C)CC4)cc3c2C(C)C)cc(C)n1` [Example 33, 2-(2,6-dimethylpyridin-4-yl)-3-isopropyl-5-((1-methylpiperidin-4-yl)methoxy)-1H-indole], the IC50 at human TLR9 is 502 nM; against human TLR8, 2.6 nM; against human TLR7, 2.8 nM.

Turning to `Cc1cc(-c2[nH]c3ccc(OCC4CCN(C)CC4)cc3c2C(C)C)cn(C)c1=O` [Example 34, 5-(3-isopropyl-5-((1-methylpiperidin-4-yl)methoxy)-1H-indol-2-yl)-1,3-dimethylpyridin-2(1H)-one], the figures for the IC50 at human TLR9, against human TLR8 and against human TLR7 were 5550 nM, 1.6 nM and 2.4 nM, respectively.

As for `Cc1cc(-c2[nH]c3ccc(OCC4CCN(C(C)C)CC4)cc3c2C(C)C)cc(C)n1` [Example 35, 2-(2,6-dimethylpyridin-4-yl)-3-isopropyl-5-((1-isopropylpiperidin-4-yl)methoxy)-1H-indole], the IC50 was 317 nM at human TLR9, 2.7 nM against human TLR8 and 4.9 nM at human TLR7.

For the compound `Cc1cc(-c2[nH]c3ccc(OCC4CCN(C(C)C)CC4)cc3c2C(C)C)cn(C)c1=O` [Example 36, 5-(3-isopropyl-5-((1-isopropylpiperidin-4-yl)methoxy)-1H-indol-2-yl)-1,3-dimethylpyridin-2(1H)-one], the IC50 at human TLR9 came out at 10600 nM; against human TLR8, 2.4 nM; against human TLR7, 5.6 nM.

`Cc1cc(-c2[nH]c3ccc(O[C@H]4CCCN(C)C4)cc3c2C(C)C)cn(C)c1=O` [Example 37, (S)-5-(3-isopropyl-5-((1-methylpiperidin-3-yl)oxy)-1H-indol-2-yl)-1,3-dimethylpyridin-2(1H)-one]: the figures for the IC50 on human TLR9, against human TLR8 and on human TLR7 were 46800 nM, 56.3 nM and 12.8 nM, respectively.

In the case of `Cc1cc(-c2[nH]c3ccc(O[C@H]4CCCN(C)C4)cc3c2C(C)C)cn2ncnc12` [Example 38, (S)-6-(3-isopropyl-5-((1-methylpiperidin-3-yl)oxy)-1H-indol-2-yl)-8-methyl-[1,2,4]triazolo[1,5-a]pyridine], the IC50 came out at 3640 nM on human TLR9, 27 nM on human TLR8 and 3.6 nM against human TLR7.

With `Cc1cc(-c2[nH]c3ccc(OC4CCN(C5CCOCC5)CC4)cc3c2C(C)C)cn(C)c1=O` [Example 39, 5-(3-isopropyl-5-((1-(tetrahydro-2H-pyran-4-yl)piperidin-4-yl)oxy)-1H-indol-2-yl)-1,3-dimethylpyridin-2(1H)-one], the IC50 against human TLR9 amounted to 8190 nM; against human TLR8 it was 0.5 nM; against human TLR7 it was 2.5 nM.
